SMILES strings stand for the structures.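 Exposure lasted 48 hours, with cells grown in 96-well plates and compounds tested at five concentrations. GI50 is the concentration that inhibits growth by half.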 The source made the active and inactive calls. No stated cut-off is given here; in the data, active = GI50 up to about 1.1 µM and inactive = higher.

Common to all, as to assay: growth of human tumour cells (NCI), 48 h
In assay [1] the test system is A498.
The subject of assay [2] is ACHN.
For assay [3], the system named is BT-549.
The subject of assay [4] is COLO 205.
In assay [5] the test system is HCT-15.
Assay [6] has as its system HL-60.
For assay [7], the system named is KM12.
Assay [8] has as its system LOX IMVI.
Assay [9] relates to M14.
The test system of assay [10] is Malme-3M.
Assay [11] relates to NCI-H522.
Assay [12] has as its system OVCAR-3.
The test system of assay [13] is OVCAR-8.
The subject of assay [14] is RXF 393.
Assay [15] relates to SF-295.
Assay [16] concerns SF-539.
For assay [17], the system named is SK-OV-3.
The test system of assay [18] is SN12C.
The test system of assay [19] is SW-620.
Assay [20] concerns TK-10.

With `CC1(C)SC2C(NC(=O)Cc3ccccc3)C(=O)N2C1C(=O)O` (stereo not given), the GI50 in assay [1] is > 100 µM (inactive); in assay [2] it was > 100 µM (inactive); in [3], > 100 µM (inactive); in assay [4], 65.6 µM (inactive); in assay [5], more than 100 µM; in assay [6], > 100 µM (inactive). The GI50 in assay [7], in assay [8], in assay [9], in [10], in [11] and in [12] was > 100 µM (inactive) in each case. For the same molecule, the GI50 in assay [13], in assay [14], in assay [15], in assay [16], in assay [17] and in assay [18] was > 100 µM (inactive) throughout. Besides, the GI50 in assay [19] and in assay [20] was > 100 µM (inactive) each time.
With `C=CC/C=C/Cc1csc(C(C)(C)C(O)C/C=C/C(=C)CCNC(=O)OC)n1` (stereo not given), the GI50 in [1] is > 60.5 µM (inactive); in assay [2], 49.7 µM (inactive); in [3], 3.33 µM (inactive); in [4], 59.7 µM (inactive); in assay [5], 44.1 µM; in assay [6], 9.71 µM (inactive). Moreover, the GI50 in [7] was > 60.3 µM (inactive); in [8], 44.6 µM (inactive); in [9] it was 43.5 µM (inactive); in [10], > 91.8 µM (inactive); in assay [11] it was 19.1 µM (inactive); in [12], 24.8 µM (inactive). Besides, the GI50 in assay [13] is > 73.5 µM (inactive); in [14], > 63.4 µM (inactive); in assay [15], 1.28 µM (inactive); in assay [16], > 100 µM (inactive); in assay [17], > 85.3 µM (inactive); in assay [18], > 100 µM (inactive). In addition, the GI50 in assay [19] is 26.7 µM (inactive); in assay [20], > 100 µM (inactive).
Consider `COc1ccc2c(c1)/C(=C\c1c(Cl)nc3n1CCS3)C(=O)N2`, for which the GI50 in assay [1] was 4.89 µM (inactive); in [2], 11 µM (inactive); in assay [3] it was 6.76 µM (inactive); in assay [4], 3.14 µM (inactive); in assay [5], 3.84 µM; in assay [6], 3.58 µM (inactive). Besides, the GI50 in assay [7] is 2.62 µM (inactive); in assay [8] it was 9.71 µM (inactive); in assay [9] it was 7.5 µM (inactive); in assay [10], 11.2 µM (inactive); in assay [11] it was 3.73 µM (inactive); in assay [12], 2.77 µM (inactive). Besides, the GI50 in assay [13] was 19.7 µM (inactive); in [14] it was 2.13 µM (inactive); in assay [15], 3.72 µM (inactive); in assay [16], 4.65 µM (inactive); in assay [17] it was 13.1 µM (inactive); in assay [18], 10.8 µM (inactive). Further, the values for the GI50 in [19] and in [20] were 4.94 µM (inactive) and 5 µM (inactive), respectively.
As for `NC(=S)N/N=C1\CCCCC1C(O)(C(F)(F)Cl)C(F)(F)Cl` (stereo not given), the GI50 is > 10 µM (inactive) in [1]; > 10 µM (inactive) in assay [2]; > 10 µM (inactive) in assay [3]; > 10 µM (inactive) in assay [4]; more than 10 µM in assay [5]; > 10 µM (inactive) in [6]. The GI50 in [7], in assay [8], in [9], in assay [10], in [11] and in assay [12] was > 10 µM (inactive) in each case. In addition, the GI50 in assay [13], in assay [14], in [15], in assay [16], in assay [17] and in assay [18] was > 10 µM (inactive) throughout. In addition, the GI50 in assay [19] and in assay [20] was > 10 µM (inactive) in each case.
With `COc1cccc(C2ON=C(c3ccccc3)N2C23CC4CC(CC(C4)C2)C3)c1` (stereo not given), the GI50 in [1] was > 10 µM (inactive); in assay [2] it was > 10 µM (inactive); in [3] it was > 10 µM (inactive); in [4], > 10 µM (inactive); in assay [5], more than 10 µM; in assay [6], 5.09 µM (inactive). Besides, the GI50 in assay [7] was > 10 µM (inactive); in [8], > 10 µM (inactive); in [9], > 10 µM (inactive); in [10], > 10 µM (inactive); in assay [11] it was > 10 µM (inactive); in assay [12] it was 9.04 µM (inactive). Further, the GI50 in assay [13], in [14], in assay [15], in [16], in assay [17] and in assay [18] was > 10 µM (inactive) each time. Also, the GI50 in assay [19] and in assay [20] was > 10 µM (inactive) throughout.
Take `COC(=O)C1OC(SCCN)C(O)C(O)C1O` (stereo not given): the GI50 in assay [1] was > 100 µM (inactive); in assay [2], > 100 µM (inactive); in assay [3], > 100 µM (inactive); in assay [4] it was > 100 µM (inactive); in assay [5], more than 100 µM; in assay [6], > 100 µM (inactive). Moreover, the GI50 in assay [7], in assay [8], in assay [9], in assay [10], in assay [11] and in assay [12] was > 100 µM (inactive) throughout. Also, the GI50 in assay [13], in assay [14], in assay [15], in assay [16], in assay [17] and in [18] was > 100 µM (inactive) each time. For the same molecule, the GI50 in [19] and in [20] was > 100 µM (inactive) each time.
`COC(=O)/C=C\C(C#N)(C#N)/N=C/c1cc(Br)cs1`: the GI50 in [1] was 18.5 µM (inactive); in assay [2], 2.22 µM (inactive); in [3], 7.08 µM (inactive); in [4], 1.98 µM (inactive); in assay [5] it was 2.71 µM; in assay [6], 0.0465 µM (active). Also, the GI50 in [7] was 21 µM (inactive); in assay [8], 2.06 µM (inactive); in assay [9] it was 2.51 µM (inactive); in assay [10], 1.71 µM (inactive); in [11], 1.5 µM (inactive); in assay [12], 7 µM (inactive). Also, the GI50 in assay [13] was 3.84 µM (inactive); in [14], 2.27 µM (inactive); in [15] it was 17.9 µM (inactive); in assay [16], 4.8 µM (inactive); in assay [17], 19.5 µM (inactive); in assay [18], 3.18 µM (inactive). The values for the GI50 in assay [19] and in assay [20] were 1.15 µM (inactive) and 3.11 µM (inactive), respectively.
With `COc1ccc2c(c1)C(=O)C(=O)c1cc(O)c(OC)c(OC)c1-2`, the GI50 was 4.48 µM (inactive) in [1]; 0.893 µM (active) in [2]; 0.718 µM (active) in [3]; 1.31 µM (inactive) in assay [4]; 0.91 µM in assay [5]; 0.104 µM (active) in assay [6]. In addition, the GI50 in [7] is 0.979 µM (active); in [8], 0.883 µM (active); in [9] it was 0.933 µM (active); in assay [10], 0.832 µM (active); in [11] it was 0.927 µM (active); in assay [12] it was 0.946 µM (active). In addition, the GI50 in assay [13] was 0.875 µM (active); in assay [14], 0.9 µM (active); in assay [15] it was 0.805 µM (active); in [16], 1.85 µM (inactive); in assay [17], 1.5 µM (inactive); in [18], 0.879 µM (active). Besides, the GI50 in assay [19] is 1.2 µM (inactive); in assay [20], 1.01 µM (active).
As to `Clc1ccc2ns[s+]c2c1`, the GI50 in [1] is > 100 µM (inactive); in [2], 0.449 µM (active); in assay [3], 16.3 µM (inactive); in assay [4] it was 1.79 µM (inactive); in assay [5], 0.33 µM; in [6] it was 1.09 µM (active). Further, the GI50 was 3.66 µM (inactive) in assay [7]; 1.29 µM (inactive) in assay [8]; 0.222 µM (active) in assay [9]; 32.2 µM (inactive) in assay [10]; 11.1 µM (inactive) in [11]; 31.6 µM (inactive) in assay [12]. The GI50 is 20.4 µM (inactive) in [13]; > 100 µM (inactive) in [14]; 0.853 µM (active) in assay [15]; 3.53 µM (inactive) in [16]; > 100 µM (inactive) in assay [17]; 19.4 µM (inactive) in [18]. Further, the GI50 in [19] is 6.62 µM (inactive); in assay [20] it was > 25.6 µM (inactive).
Consider `NC(Cc1c[nH]c(I)n1)C(=O)O` (stereo not given), for which the GI50 in assay [1] is > 100 µM (inactive); in assay [2], > 100 µM (inactive); in assay [3], 43.4 µM (inactive); in assay [4], > 100 µM (inactive); in [5], 46.2 µM; in assay [6] it was 2.27 µM (inactive). Also, the GI50 in [7] was > 100 µM (inactive); in assay [8], > 100 µM (inactive); in assay [9], > 100 µM (inactive); in [10] it was 17.7 µM (inactive); in assay [11], 24.3 µM (inactive); in [12], 32.4 µM (inactive). In addition, the GI50 in assay [13] is 81.5 µM (inactive); in assay [14], 45.2 µM (inactive); in [15], > 100 µM (inactive); in assay [16], 37.4 µM (inactive); in assay [17] it was > 100 µM (inactive); in [18], > 100 µM (inactive). The values for the GI50 in [19] and in assay [20] were 30 µM (inactive) and > 100 µM (inactive), respectively.

Source of the values: ChEMBL document CHEMBL1201862, “PubChem BioAssay data set” (2004).
